Experiment [1] concerns the target T1, Human indoleamine 2,3-dioxygenasae (IDO) (Homo sapiens, UniProt P14902).
T1 construct: His tag (N); made in house; host or cells: E. coli
Briefly: Human indoleamine 2,3-dioxygenase (IDO) enzyme assay. The experiment is classed as biochemical. The conditions noted are these: 95 nM IDO, 2 mM D-Trp, pH 6.5, room temperature. The protocol:
Human indoleamine 2,3-dioxygenasae (IDO) with an N-terminal His tag was expressed in E. coli and purified to homogeneity. IDO catalyzes the oxidative cleavage of the pyrrole ring of the indole nucleus of tryptophan to yield N′-formylkynurenine. The assays were performed at room temperature as described in the literature using 95 nM IDO and 2 mM D-Trp in the presence of 20 mM ascorbate, 5 μM methylene blue and 0.2 mg/mL catalase in 50 mM potassium phosphate buffer (pH 6.5). The initial reaction rates were recorded by continuously following the absorbance increase at 321 nm due to the formation of N′-formlylkynurenine. See: Sono, M., Taniguchi, T., Watanabe, Y., and Hayaishi, O. (1980) J. Biol. Chem. 255, 1339-1345 Compound activity is provided in Table 2 below.

In experiment [2] the target is T2, indoleamine 2,3-dioxygenase (IDO) in HeLa cells (Homo sapiens, UniProt P14902).
T2 construct: host or cells: HeLa cells, IFN-γ induced
T2 sequence (P14902 whole entry): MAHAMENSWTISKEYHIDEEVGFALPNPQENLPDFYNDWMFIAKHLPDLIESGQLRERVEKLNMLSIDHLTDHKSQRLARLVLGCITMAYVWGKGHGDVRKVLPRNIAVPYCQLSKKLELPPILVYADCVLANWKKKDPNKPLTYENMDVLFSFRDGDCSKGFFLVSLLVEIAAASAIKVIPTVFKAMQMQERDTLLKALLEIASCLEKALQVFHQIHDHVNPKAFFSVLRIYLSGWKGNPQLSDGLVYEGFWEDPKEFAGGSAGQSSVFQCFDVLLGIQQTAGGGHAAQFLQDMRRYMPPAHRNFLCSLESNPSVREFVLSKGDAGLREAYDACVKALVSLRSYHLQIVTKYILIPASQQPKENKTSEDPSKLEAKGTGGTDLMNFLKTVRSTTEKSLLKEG
Briefly: HeLa cell-based indoleamine 2,3-dioxygenase (IDO)/kynurenine assay. The note with it: IFN-γ 50 ng/mL, 48 hours incubation, kynurenine at 480 nm. As for the experimental part: HeLa cells (#CCL-2) can be obtained from the American Type Tissue Culture Collection (ATCC, Manassas, Va.) and routinely maintained in minimum essential medium (eagle) with 2 mM L-glutamine and Earle's BSS adjusted to contain 1.5 g/L sodium bicarbonate, 0.1 mM non-essential amino acids, 1 mM sodium pyruvate and 10% fetal bovine serum (all from Invitrogen). Cells are kept at 37° C. in a humidified incubator supplied with 5% CO2. The assay is performed as follows: HeLa cells are seeded in a 96 well culture plate at a density of 5×10^3 per well and grown overnight. On the next day, IFN-γ (50 ng/mL final concentration) and serial dilutions of compounds (in total volume of 200 μL culture medium) are added into cells. After 48 hours of incubation, 140 μL of the supernatant per well is transferred to a new 96 well plate. 10 μL of 6.1 N trichloroacetic acid (#T0699, Sigma) is mixed into each well and incubated at 50° C. for 30 min to hydrolyze N-formylkynurenine produced by indoleamine 2,3-dioxygenase to kynurenine. […] The yellow color derived from Kynurenine is measured at 480 nm using a SPECTRAmax 250 microplate reader (Molecular Devices). […] The percent inhibition at individual concentrations is determined and the average values of duplicates are obtained. The data is analyzed by using nonlinear regression to generate IC50 values (Prism Graphpad). […]

The subject of another experiment is LLC tumors. The note with it: LLC tumors in C57B1/6 mice, versus placebo (Friberg, M., et al); cited from earlier work.
The next experiment relates to P815 tumor. The conditions noted are these: pre-immunized immune-competent mice, IDO-expressing tumors (Uyttenhove, C., et al); cited from earlier work.

T1 sequence (P14902 whole entry): as above

On to `OCc1nonc1C(=NO)NCc1cc(Br)ccc1F` [Example 3], for which the IC50 in experiment [1] is below 1000 nM; in experiment [2] it was below 500 nM. As for `Cn1cc(C[C@H](N)C(=O)O)c2ccccc21` [Example 1-MT, 1-methyl-tryptophan], the formation of tumors entry in the experiment with LLC tumors is on record as “markedly delayed”. Moreover, the growth of tumors entry with P815 tumor was “inhibited”. With `Cc1ccc(C)c(CNC(=NO)c2nonc2CO)c1` [Example 4], the IC50 in experiment [1] is below 5000 nM.

Consider `Cc1ccc(Cl)cc1CNC(=NO)c1nonc1CO` [Example 1, N-(5-chloro-2-methylbenzyl)-N′-hydroxy-4-(hydroxymethyl)-1,2,5-oxadiazole-3-carboximidamide], for which the IC50 was below 1000 nM in experiment [1] and below 500 nM in experiment [2]. Take `OCc1nonc1C(=NO)NCc1cc(Cl)ccc1Cl` [Example 2]: in experiment [1], the IC50 was below 5000 nM.

A word on the IC50: it is the concentration that inhibits the measured activity by half. A low value points to higher potency.

Source of the values: US20080182882A1, “N-HYDROXYAMIDINOHETEROCYCLES AS MODULATORS OF INDOLEAMINE 2,3-DIOXYGENASE” (INCYTE CORPORATION, priority 2006, published 2008).
